Measured values: patent publication US20240226343A1, “NEUROPEPTIDE Y1 RECEPTOR (NPY1R) TARGETED THERAPEUTICS AND USES THEREOF” (RADIONETICS ONCOLOGY, INC., priority 2022, published 2024)
Read-outs that look alike come from different tables or passages of the source.

Target: T1, hNPY1R (Homo sapiens, UniProt P25929)
T1 construct: SK-N-MC cells endogenously expressing the NPY1R receptor; endogenous in cells; host or cells: SK-N-MC cells (crude membrane fractions)
T1 sequence (P25929 1-384): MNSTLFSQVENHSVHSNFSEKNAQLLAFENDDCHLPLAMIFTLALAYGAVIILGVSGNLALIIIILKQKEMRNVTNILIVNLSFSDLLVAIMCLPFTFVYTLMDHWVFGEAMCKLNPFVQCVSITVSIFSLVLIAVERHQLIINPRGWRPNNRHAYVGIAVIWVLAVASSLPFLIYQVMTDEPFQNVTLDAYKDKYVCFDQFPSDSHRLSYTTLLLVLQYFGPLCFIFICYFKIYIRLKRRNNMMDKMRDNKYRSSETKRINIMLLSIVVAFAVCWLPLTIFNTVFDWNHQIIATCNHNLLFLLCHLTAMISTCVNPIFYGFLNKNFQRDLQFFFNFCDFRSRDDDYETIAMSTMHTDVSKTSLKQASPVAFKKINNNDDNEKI
Test: NPY1R binding assay: SK-N-MC membranes, [125I]-Peptide YY (human) competition
Protocol: Crude membrane fractions are prepared from SK-N-MC cells endogenously expressing the NPY1R receptor. The cells are grown to 85-100% confluence on standard tissue culture dishes in Eagle's Minimum Essential Medium supplemented with 10% dialyzed FBS. To prepare membranes, cells are scraped and collected in 1× Dulbecco's phosphate buffered saline and then pelleted at 1000 RPM's. The cell pellet is reconstituted in membrane preparation buffer (20 mM HEPES, 6 mM MgCl2 and 1 mM EGTA, protease inhibitor tablets, pH 7.4) and placed in a cell disruption vessel at 1000 PSI for 30 minutes on ice. The pressurized contents are then released and spun down at 1000 RPMs and the supernatant is collected and further centrifuged at 15,000 RPMs to pellet the membranes. The membrane pellet is resuspended in membrane preparation buffer, snap frozen and stored at −80° C. for later use.
[…] Assay contents are then filtered through unifilter GF/C microplates and washed with 9×400 μl of cold wash buffer (25 mM HEPES, 5 mM MgCl2, 1 mM CaCl2), 500 mM NaCl, 0.1% Tween-20, pH 7.4). Assay plates are read using a Top Count NXT and Ki values for compounds are determined using a GraphPad Prism 6 non-linear regression analysis.

[1] = data obtained after 60 minutes at 37° C., SK-N-MC membranes, [125I]-Peptide YY 0.05 nM, read-out: hNPY1R binding Ki* †
[2] = data obtained after 120 minutes at rt, SK-N-MC membranes, [125I]-Peptide YY, read-out: hNPY.R binding Ki* ††

Row | Compound | Ki [1] | Ki [2] | Ki (read-out: hNPY.R binding Ki* ††)
1 | CCC(=O)NCCNC(=O)/N=C(/N)NCCC[C@@H](NC(=O)C(c1ccccc1)c1ccc(NCCCNC(=O)CCOCCOCCNC(=O)CN2CCN(CC(=O)O)CCN(CC(=O)O)CCN(CC(=O)O)CC2)cc1)C(=O)NCc1ccc(O)cc1 (single isomer, unassigned) [Compound 103B] | < 10 nM | – | –
2 | CCC(=O)NCCNC(=O)/N=C(/N)NCCC[C@@H](NC(=O)C(c1ccccc1)c1ccc(NCC(=O)N(C)CCCN(C)CCCN(C)C(=O)CN2CCN(CC(=O)O)CCN(CC(=O)O)CCN(CC(=O)O)CC2)cc1)C(=O)NCc1ccc(O)cc1 (single isomer, unassigned) [Compound 139B] | – | < 10 nM | –
3 | CCC(=O)NCCNC(=O)/N=C(/N)NCCC[C@@H](NC(=O)C(c1ccccc1)c1ccc(OCCCNc2c(NCCNC(=O)CN3CCN(CC(=O)O)CCN(CC(=O)O)CCN(CC(=O)O)CC3)c(=O)c2=O)cc1)C(=O)NCc1ccc(O)cc1 (single isomer, unassigned) [Compound 136A] | – | – | < 10 nM
4 | CCC(=O)NCCNC(=O)/N=C(/N)NCCC[C@@H](NC(=O)C(c1ccccc1)c1cccc(OCCCCNC(=O)CN2CCN(C(=O)CN3CCN(CC(=O)O)CCN(CC(=O)O)CCN(CC(=O)O)CC3)CC2)c1)C(=O)NCc1ccc(O)cc1 (single isomer, unassigned) [Compound 118A] | < 10 nM | < 10 nM | –
5 | CCNC(=O)/N=C(/N)NCCC[C@@H](NC(=O)C(c1ccccc1)c1cccc(OCCCCNC(=O)[C@@H](Cc2ccc(-c3ccccc3)cc2)NC(=O)[C@@H](CN)NC(=O)CN2CCN(CC(=O)O)CCN(CC(=O)O)CCN(CC(=O)O)CC2)c1)C(=O)NCc1ccc(O)cc1 (single isomer, unassigned) [Compound 148B] | – | < 10 nM | –
6 | CCC(=O)NCCNC(=O)/N=C(/N)NCCC[C@@H](NC(=O)C(c1ccccc1)c1cccc(OCCCCNc2c(NCCNC(=O)CN3CCN(CC(=O)O)CCN(CC(=O)O)CCN(CC(=O)O)CC3)c(=O)c2=O)c1)C(=O)NCc1ccc(O)cc1 (single isomer, unassigned) [Compound 111A] | < 10 nM | – | –
7 | CCC(=O)NCCNC(=O)/N=C(/N)NCCC[C@@H](NC(=O)C(c1ccccc1)c1cccc(OCCCCNC(=O)CCCCCNC(=O)CN2CCN(CC(=O)O)CCN(CC(=O)O)CCN(CC(=O)O)CC2)c1)C(=O)NCc1c(F)cc(O)cc1F (single isomer, unassigned) [Compound 161A] | – | < 10 nM | –
8 | CCC(=O)NCCNC(=O)/N=C(/N)NCCC[C@@H](NC(=O)C(c1ccccc1)c1ccc(NCCCNC(=O)[C@H]2CC[C@H](CNC(=O)CN3CCN(CC(=O)O)CCN(CC(=O)O)CCN(CC(=O)O)CC3)CC2)cc1)C(=O)NCc1ccc(O)cc1 (stereo partly drawn) [Compound 158, 2,2′,2″-(10-(2-((((1R,4r)-4-((3-((4-((4R,Z)-9-amino-4-((4-hydroxybenzyl)carbamoyl)-2,11,16-trioxo-1-phenyl-3,8,10,12,15-pentaazaoctadec-9-en-1-yl)phenyl)amino)propyl)carbamoyl)cyclohexyl)methyl)amino)-2-oxoethyl)-1,4,7,10-tetraazacyclododecane-1,4,7-triyl)triacetic acid] | – | < 10 nM | –
9 | CCC(=O)NCCNC(=O)/N=C(/N)NCCC[C@@H](NC(=O)C(c1ccccc1)c1cccc(NCCCNC(=O)CCOCCNC(=O)CN2CCN(CC(=O)O)CCN(CC(=O)O)CCN(CC(=O)O)CC2)c1)C(=O)NCc1ccc(O)cc1 (single isomer, unassigned) [Compound 121B] | – | < 10 nM | –
10 | CCC(=O)NCCNC(=O)/N=C(/N)NCCC[C@@H](NC(=O)C(c1ccccc1)c1ccc(NCCCNC(=O)NOCCNC(=O)CN2CCN(CC(=O)O)CCN(CC(=O)O)CCN(CC(=O)O)CC2)cc1)C(=O)NCc1ccc(O)cc1 (single isomer, unassigned) [Compound 160] | – | 10 to 100 nM | –
11 | CCC(=O)NCCNC(=O)/N=C(/N)NCCC[C@@H](NC(=O)C(c1ccccc1)c1cccc(OCCCCNC(=O)NOCCNC(=O)CN2CCN(CC(=O)O)CCN(CC(=O)O)CCN(CC(=O)O)CC2)c1)C(=O)NCc1c(F)cc(O)cc1F (single isomer, unassigned) [Compound 163A] | – | < 10 nM | –
12 | CCC(=O)NCCNC(=O)/N=C(/N)NCCC[C@@H](NC(=O)C(c1ccccc1)c1ccc(NCC(=O)N(C)CCCN(C)CCCN(C)C(=O)CN2CCN(CC(=O)O)CCN(CC(=O)O)CCN(CC(=O)O)CC2)cc1)C(=O)NCc1ccc(O)cc1 (single isomer, unassigned) [Compound 139A] | – | < 10 nM | –
13 | CCC(=O)NCCNC(=O)/N=C(/N)NCCC[C@@H](NC(=O)C(c1ccccc1)c1cccc(OCCCCNc2c(NCCNC(=O)CN3CCN(CC(=O)O)CCN(CC(=O)O)CCN(CC(=O)O)CC3)c(=O)c2=O)c1)C(=O)NCc1ccc(O)cc1 (single isomer, unassigned) [Compound 111B] | < 10 nM | – | –
14 | CCC(=O)NCCNC(=O)/N=C(/N)NCCC[C@@H](NC(=O)C(c1ccccc1)c1cccc(OCCOCCOCCOCCNC(=O)CN2CCN(CC(=O)O)CCN(CC(=O)O)CCN(CC(=O)O)CC2)c1)C(=O)NCc1ccc(O)cc1 (stereo partly drawn) [Compound 104, 2,2′,2″-(10-(14-(3-((4R,Z)-9-amino-4-((4-hydroxybenzyl)carbamoyl)-2,11,16-trioxo-1-phenyl-3,8,10,12,15-pentaazaoctadec-9-en-1-yl)phenoxy)-2-oxo-6,9,12-trioxa-3-azatetradecyl)-1,4,7,10-tetraazacyclododecane-1,4,7-triyl)triacetic acid] | < 10 nM | – | –
15 | CCC(=O)NCCNC(=O)/N=C(/N)NCCC[C@@H](NC(=O)C(c1ccccc1)c1ccc(NCCCNC(=O)[C@H](N)CCC(=O)NCCN(C)CCNC(=O)CN2CCN(CC(=O)O)CCN(CC(=O)O)CCN(CC(=O)O)CC2)cc1)C(=O)NCc1ccc(O)cc1 (single isomer, unassigned) [Compound 145A] | – | < 10 nM | –
16 | CCC(=O)NCCNC(=O)/N=C(/N)NCCC[C@@H](NC(=O)C(c1ccccc1)c1cccc(OCCOCCOCCOCCOCCNC(=O)CN2CCN(CC(=O)O)CCN(CC(=O)O)CCN(CC(=O)O)CC2)c1)C(=O)NCc1ccc(O)cc1 (single isomer, unassigned) [Compound 101B] | < 10 nM | – | –
17 | CCNC(=O)/N=C(/N)NCCC[C@@H](NC(=O)C(c1ccccc1)c1ccc(NCCCNC(=O)[C@H](N)CCCNC(=O)[C@@H](Cc2ccc(-c3ccccc3)cc2)NC(=O)CN2CCN(CC(=O)O)CCN(CC(=O)O)CCN(CC(=O)O)CC2)cc1)C(=O)NCc1ccc(O)cc1 (single isomer, unassigned) [Compound 151] | – | < 10 nM | –
18 | CCC(=O)NCCNC(=O)/N=C(/N)NCCC[C@@H](NC(=O)C(c1ccccc1)c1ccc(NCCCNc2c(NCCNC(=O)CN3CCN(CC(=O)O)CCN(CC(=O)O)CCN(CC(=O)O)CC3)c(=O)c2=O)cc1)C(=O)NCc1ccc(O)cc1 (single isomer, unassigned) [Compound 124B] | < 10 nM | < 10 nM | –
19 | CCC(=O)NCCNC(=O)/N=C(/N)NCCC[C@@H](NC(=O)C(c1ccccc1)c1cccc(OCCCCNC(=O)CCC(=O)N(CC(=O)O)C2CCN(C(=O)CN3CCN(CC(=O)O)CCN(CC(=O)O)CCN(CC(=O)O)CC3)CC2)c1)C(=O)NCc1ccc(O)cc1 (single isomer, unassigned) [Compound 117B] | < 10 nM | < 10 nM | –
20 | CCC(=O)NCCNC(=O)/N=C(/N)NCCC[C@@H](NC(=O)C(c1ccccc1)c1cccc(OCCCCNC(=O)CCC(=O)N(CC(=O)O)C2CCN(C(=O)CN3CCN(CC(=O)O)CCN(CC(=O)O)CCN(CC(=O)O)CC3)CC2)c1)C(=O)NCc1ccc(O)cc1 (single isomer, unassigned) [Compound 117A] | 10 to 100 nM | 10 to 100 nM | –
21 | CCC(=O)NCCNC(=O)/N=C(/N)NCCC[C@@H](NC(=O)C(c1ccccc1)c1ccc(NCCCNC(=O)[C@H](N)CCCCNC(=O)CN2CCN(CC(=O)O)CCN(CC(=O)O)CCN(CC(=O)O)CC2)cc1)C(=O)NCc1ccc(O)cc1 (single isomer, unassigned) [Compound 132B] | – | < 10 nM | –
22 | CCC(=O)NCCNC(=O)/N=C(/N)NCCC[C@@H](NC(=O)C(c1ccccc1)c1ccc(NCCCNc2c(NCCNC(=O)[C@@H](CN)NC(=O)CN3CCN(CC(=O)O)CCN(CC(=O)O)CCN(CC(=O)O)CC3)c(=O)c2=O)cc1)C(=O)NCc1ccc(O)cc1 (single isomer, unassigned) [Compound 137B] | – | < 10 nM | –
23 | CCC(=O)NCCNC(=O)/N=C(/N)NCCC[C@@H](NC(=O)C(c1ccccc1)c1cccc(OCCCCNC(=O)NNC(=O)CCNC(=O)CN2CCN(CC(=O)O)CCN(CC(=O)O)CCN(CC(=O)O)CC2)c1)C(=O)NCc1c(F)cc(O)cc1F (single isomer, unassigned) [Compound 166] | – | < 10 nM | –
24 | CCC(=O)NCCNC(=O)/N=C(/N)NCCC[C@@H](NC(=O)C(c1ccccc1)c1cccc(OCCCCNC(=O)[C@@H](CO)NC(=O)CCNC(=O)CN2CCN(CC(=O)O)CCN(CC(=O)O)CCN(CC(=O)O)CC2)c1)C(=O)NCc1c(F)cc(O)cc1F (single isomer, unassigned) [Compound 165A] | – | < 10 nM | –
